# Source: US20020161007A1, “Non-steroidal modulators of estrogen receptors” (priority 2001, published 2002)
# Where two headings read alike, the source gives them in different places.
# Assays:
# [1] = test system: human breast tumor MCF-7 cell line; assay: MTT antiproliferative assay on human MCF-7 cell line; assay type: cell-based; conditions: for IC50: MTT inhibition of proliferation, mean of triplicate determinations; for % Cell viability: 72 h, MTT, MCF-7
# Text: EXAMPLE 14—Determination of the antiproliferative effects on human MCF-7 cell lines.
# MTT is a yellow tetrazolium salt which is taken up only by metabolically active cells and subsequently cleaved by mitochondrial dehydrogenases to yield a purple crystalline formazan dye. On solubilisation this purple color may be read spectrophotometrically at 570 nm. The absorbance measured at this wavelength is directly proportional to the amount of viable cells present.
# Procedure : The human breast tumor MCF-7 cell line was cultured in Eagles minimum essential medium in a 5% CO2 atmosphere with 10% fetal calf serum. The medium was supplemented with 1% non-essential amino acids. The cells were trypsinized and seeded at a density of 1.5×10^4 into a 96-well plate and incubated at 37° C., 5% CO2 atmosphere for 24 h. […] Control wells contained the equivalent volume of the vehicle ethanol (1% v/v). The culture medium was then removed and the cells washed with 100 μl PBS and 50 μl MTT added, to reach a final concentration of 1 mg/ml MTT added. The cells were incubated for 2 h in darkness at […]. At this point solubilisation was begun through the addition of 200 μl DMSO and the cells maintained at room temperature in darkness for 20 min to ensure thorough color diffusion before reading the absorbance. The absorbance value of control cells (no added compound) was set to 100% cell viability. Graphs of absorbance versus cell density per well were prepared to assess cell viability.
# [2] = test system: human MCF-7 breast cancer cells; assay: LDH release cytotoxicity assay on human MCF-7 cells; assay type: cell-based; conditions: 72 h
# Text: EXAMPLE 15—Determination of the cytotoxic effects on human MCF-7 cell lines.
# Lactate dehydrogenase (LDH) is a cytosolic enzyme released upon cell lysis (death). Through the use of a commercial LDH assay kit, released LDH converts a substrate tetrazolium salt into a soluble red formazan product. The absorbance of this dye can be measured directly at 490 nm, the color formed is proportional to the number of lysed cells, and as such the extent of cytotoxic activity for the compound added may be assessed.
# Procedure : As with the cell proliferation assay, human MCF-7 breast cancer cells were plated at a density of 1.5×10^4 per well in a 96-well plate, then incubated at 37° C., 5% CO2 atmosphere for 24 h. The cells were treated with the compound of choice at varying concentrations (1nM-100 μM), then incubated for a further 72 h. Following incubation 50 μl aliquots of medium were removed to a fresh 96-well plate. A 50 μl per well LDH substrate mixture was added and the plate left in darkness at room temperature for 30 minutes. Stop solution (50 μl) was added to all wells before reading the absorbance at 490 nm. A control of 100% lysis was determined for a set of untreated cells which were lysed through the addition of 20 μl lysis solution to the media 45 min prior to harvesting.
# [3] = Homo sapiens, MCF7, read-out: IC50
# [4] = Homo sapiens, MCF7, read-out: IC50 Range
"IC50 [1, 3]",IC50 ([1]; read-out: IC50 Range),Molecule,other results
39.5 µM,,"CCC(Cc1ccccc1)=C(c1ccccc1)c1ccc(NCCO)cc1 [Compound 33, 2-[4-(2-Benzyl-1-phenylbut-1-enyl)-phenylamino]-ethanol]",
,20 to 25 µM,"CCC(=C(Cc1ccccc1)c1ccccc1)c1ccc(OCCN2CCCC2)cc1 [Compound 13, 1-Benzyl-1-phenyl-2-[(4-pyrrolidinylethoxy)phenyl]but-1-ene]",
,1 to 5 µM,"CCC(Cc1ccccc1)=C(c1ccccc1)c1ccc(OCCN2CCCCC2)cc1 [Compound 4, 2-Benzyl-1-phenyl-1-[4-(pipyridinylethoxy)phenyl]but-1-ene]",% Cell viability ([1]; 1 nM): 103.8%; % Cell viability ([1]; 10 nM): 100.3%; % Cell viability ([1]; 100 nM): 91.14%; % Cell viability ([1]; 1 μM): 85.13%; % Cell viability ([1]; 10 μM): 29.11%; % Cell viability ([1]; 50 μM): 1.58%; % Cell viability ([1]; 100 μM): 1.27%; % Cytotoxicity ([2]; 1 nM): 3.67%; % Cytotoxicity ([2]; 10 μM): 34.76%; % Cytotoxicity ([2]; 50 μM): 49.44%; % Cytotoxicity ([2]; 100 μM): 49.14%
,,"CC/C(=C(\Cc1ccccc1)c1ccc(OCCN2CCCC2)cc1)c1ccccc1 [Compound 8, 1-Benzyl-2-phenyl-[1-(4-pyrrolidinylethoxy)phenyl]-but-1-ene]","IC50 [1, 4]: 10 to 15 µM"
,15 to 20 µM,"CCC(=C(Cc1ccccc1)c1ccc(OCCN(CC)CC)cc1)c1ccccc1 [Compound 7, 1-Benzyl-2-phenyl-[1-(4-diethylaminoethoxy)phenyl]-but-1-ene]",
14.1 µM,,"CCOCCCNc1ccc(/C(=C(/CC)Cc2ccccc2)c2ccccc2)cc1 [Compound 31, [4-(2-benzyl-1-phenylbut-1-enyl)-phenyl]-(3-ethoxypropyl)-amine]",
34 µM,,"CCC(Cc1ccccc1)=C(c1ccccc1)c1ccc(NCCCO)cc1 [Compound 34, 3-[4-(2-Benzyl-1-phenylbut-1-enyl)-phenylamino]-propan-1-ol]",
23.3 µM,,"CCCOCCCNc1ccc(C(=C(CC)Cc2ccccc2)c2ccccc2)cc1 [Compound 32, [4-(2-Benzyl-1-phenylbut-1-enyl)-phenyl]-(3-propoxypropyl)-amine]",
34.4 µM,,"CCC(Cc1ccccc1)=C(c1ccc(NCCOC)cc1)c1ccc(OC)cc1 [Compound 37, {4-[2-Benzyl-1-(4-methoxyphenyl)-but-1-enyl]-phenyl}-(2-methoxyethyl)-amine]",
,,"CC/C(=C(\Cc1ccccc1)c1ccccc1)c1ccc(OCCN(C)C)cc1 [Compound 11, 1-Benzyl-1-phenyl-2-[(4-dimethylaminoethoxy)phenyl]but-1-ene]","IC50 [1, 4]: 115 to 120 µM"
49.5 µM,,"CCC(Cc1ccc(OC)cc1)=C(c1ccccc1)c1ccc(NCCOC)cc1 [Compound 39, {4-[2-(4-methoxybenzyl)-1-phenylbut-1-enyl]-phenyl}-(2-methoxyethyl)-amine]",
24.9 µM,,"CCC(Cc1ccccc1)=C(c1ccccc1)c1ccc(OCCO)cc1 [Compound 35, 2-[4-(2-Benzyl-1-phenylbut1enyl)-phenoxy]-ethanol]",
,,"CC/C(=C(\Cc1ccccc1)c1ccc(OCCN2CCOCC2)cc1)c1ccccc1 [Compound 10, 1-Benzyl-2-phenyl[1-(5-morpholinylethoxy)phenyl]but-1-ene]","IC50 [1, 4]: 1 to 5 µM"
,50 to 55 µM,"CCC(=C(Cc1ccccc1)c1ccccc1)c1ccc(OCCN2CCOCC2)cc1 [Compound 15, 1-Benzyl-1-phenyl-2-[(4-morpholinylethoxy)phenyl]but-1-ene]",
,,"CC/C(Cc1ccccc1OC)=C(/c1ccc(OCCN2CCCC2)cc1)c1ccc(OC(=O)C(C)(C)C)cc1 [Compound 26, 2,2-Dimethyl-propionic acid 4-{2-(2-methoxybenzyl)-1-[4-(2-pyrrolidin-1-yl-ethoxy)-phenyl]-but-1-enyl}-phenyl ester]","IC50 [1, 4]: 1 to 10 µM"
,1 to 10 µM,CCC(Cc1ccccc1)=C(c1ccc(OCCN2CCCC2)cc1)c1ccc(OC(=O)C(C)(C)C)cc1 [Compound 21],
13.7 µM,,"CCC(Cc1ccccc1)=C(c1ccccc1)c1ccc(NCCN(C)C)cc1 [Compound 42, N′-[4-(2-Benzyl-1-phenylbut-1-enyl)-phenyl]-N,N-dimethylethane-1,2-diamine]",
,,"CCC(Cc1ccccc1)=C(c1ccc(O)cc1)c1ccc(OCCN(C)C)cc1 [Compound 24, 4-{2-Benzyl-1-[4-(2-dimethylamino-ethoxy)-phenyl]-but-1-enyl}-phenol]","IC50 [1, 4]: 0.01 to 0.1 µM"
36.8 µM,,"CCOCCNc1ccc(C(=C(CC)Cc2ccccc2)c2ccccc2)cc1 [Compound 28, [4-(2-Benzyl-1-phenylbut-1-enyl)-phenyl]-(2-ethoxyethyl)-amine]",

"IC50 [1, 3]",IC50 ([1]; read-out: IC50 Range),Molecule,other results
33.7 µM,,"CCC(Cc1ccccc1)=C(c1ccccc1)c1ccc(NCCOC)cc1 [Compound 27, [4-(2-Benzyl-1-phenylbut-1-enyl)-phenyl]-(2-methoxyethyl)-amine]",
,65 to 70 µM,"1,2-Diphenyl-2-[(4-pipyridinylethoxy)benzyl]but-1-ene [Compound 19]",
,55 to 60 µM,"CCC(=C(Cc1ccccc1OCCN(CC)CC)c1ccccc1)c1ccccc1 [Compound 17, 1,2-Diphenyl-2-[2-(diethylaminoethoxy)benzyl]but-1-ene]",
20.2 µM,,"CCC(Cc1ccccc1)=C(c1ccccc1)c1ccc(OCCCO)cc1 [Compound 36, 3-[4-(2-Benzyl-1-phenylbut-1-enyl)-phenoxy]-propan-1-ol]",
32.4 µM,,"CCC(Cc1ccc(O)cc1)=C(c1ccccc1)c1ccc(NCCOC)cc1 [Compound 41, 4-{2-Ethyl-3-[4-(2-methoxyethylamino)-phenyl]-3-phenylallyl}-phenol]",
51.8 µM,,"CCC(Cc1ccc(OC)cc1)=C(c1ccc(NCCOC)cc1)c1ccc(OC)cc1 [Compound 38, {4-[2-(4-methoxybenzyl)-1-(4-methoxyphenyl)-but-1-enyl]-phenyl}-(2-methoxyethyl)-amine]",
,10 to 50 µM,CCC(Cc1ccccc1)=C(c1ccc(OCCN(C)C)cc1)c1ccc(OC(=O)C(C)(C)C)cc1 [Compound 22],
,,CC/C(=C(/Cc1ccc(OCCN(C)C)cc1)c1ccccc1)c1ccccc1 [Compound 16],"IC50 [1, 4]: 25 to 30 µM"
35.4 µM,,"CCC(Cc1ccccc1)=C(c1ccccc1)c1ccc(NCCCOC)cc1 [Compound 30, [4-(2-Benzyl-1-phenylbut-1-enyl)-phenyl]-(3-methoxypropyl)-amine]",
41.7 µM,,"CCC(Cc1ccccc1)=C(c1ccccc1)c1ccc(OCCOC)cc1 [Compound 40, 1-(2-Benzyl-1-phenylbut-1-enyl)-4-(2-methoxyethoxy)-benzene]",
,0.1 to 1 µM,CCC(Cc1ccccc1)=C(c1ccc(OCCN2CCOCC2)cc1)c1ccc(OC(=O)C(C)(C)C)cc1 [Compound 23],
,40 to 50 µM,"CCC(Cc1ccccc1)=C(c1ccccc1)c1ccc(OCCN2CCOCC2)cc1 [Compound 5, 2-Benzyl-1-phenyl-1-[4-(morpholinylethoxy)phenyl]but-1-ene]",
,,"CC/C(=C(\Cc1ccccc1)c1ccc(OCCN2CCCCC2)cc1)c1ccccc1 [Compound 9, 1-Benzyl-2-phenyl-[1-(4-pipyridinylethoxy)phenyl]-but-1-ene]","IC50 [1, 4]: 70 to 80 µM"
,140 to 145 µM,CCC(=C(Cc1ccc(OCCN2CCCC2)cc1)c1ccccc1)c1ccccc1 [Compound 18],
46.9 µM,,"CCCOCCNc1ccc(C(=C(CC)Cc2ccccc2)c2ccccc2)cc1 [Compound 29, [4-(2-Benzyl-1-phenylbut-1-enyl)-phenyl]-(2-propoxyethyl)-amine]",
,20 to 25 µM,"CCC(=C(Cc1ccccc1)c1ccccc1)c1ccc(OCCN(CC)CC)cc1 [Compound 12, 1-Benzyl-1-phenyl-2-[(4-diethylaminoethoxy)phenyl]but-1-ene]",
,1 to 5 µM,"CCC(Cc1ccccc1)=C(c1ccccc1)c1ccc(OCCN2CCCC2)cc1 [Compound 3, 2-Benzyl-1-phenyl-1-[4-(pyrrolidinylethoxy)phenyl]but-1-ene]",
,,"CCC(Cc1ccccc1)=C(c1ccccc1)c1ccc(OCCN(CC)CC)cc1 [Compound 2, 2-Benzyl-1-phenyl-1-[4-(diethylaminoethoxy)phenyl]but-1-ene]","IC50 [1, 4]: 10 to 15 µM"
